The source of these data is paper PMC9668655 (Computational and Structural Biotechnology Journal, 2022).

For assay [1], the system named is RSL-MOA. It counts as binding, Ralstonia nicotianae; Marasmius oreades. Particulars: 50 nM RSL-MOA pre-incubated with fucose; 10 mM HEPES pH 7.5, 100 mM NaCl, 0.05 % Tween 20, 25 °C; RSL site; competitive with immobilised fucose.
The target in assay [2] is RSL-MOA. The assay is classed as binding, Ralstonia nicotianae; Marasmius oreades. As to conditions: 20 mM Tris/HCl pH 7.5, 100 mM NaCl, 25 °C, one-site model, titrated into the RSL-MOA/Galα1-3Gal complex.
Assay [3] deals with RSL (Ralstonia pseudosolanacearum, UniProt Q8XXK6). Particulars: 250 µM; 250 μM ligand, 25 μM protein; absolute Tm1, not a shift (ligand-free reference in the 2nd table, row 4); 20 mM Tris/HCl pH 7.5, 100 mM NaCl.

`C[C@@H]1OC(O)[C@@H](O)[C@H](O)[C@@H]1O` (stereo partly drawn) [L-fucose] came in with an IC50 in assay [1] of 7.8 µM.

The molecule `CO[C@@H]1O[C@@H](C)[C@@H](O)[C@@H](O)[C@@H]1O` [α-methyl fucoside] yielded a Kd in assay [2] of 0.4 µM. The “Tm1 (°C)” value in assay [3] is 101.6 °C.
